Source: PMC12850010, “Interaction of cytochrome P450 3A4 with the hydrophilic ligand tetraethylene glycol” (Biochemical and biophysical research communications, 2025)

What was measured:
CYP3A4 [1] = molecular target: T1, CYP3A4 (Homo sapiens, UniProt P08684); test: Spectral binding (equilibrium) titrations of CYP3A4; conditions: for Kd: human, CYP3A4 protein solution (2 μM), sigmoidal (Hill) fit
Description: (§1) Equilibrium titrations of CYP3A4 were conducted in a Cary 300 spectrophotometer at ambient temperature in 0.1 M phosphate, pH 7.4. […] The binding parameters were determined from fittings to the plot of the absorbance change (peak-to-trough separations in the difference spectra; ΔA) vs ligand concentration.

CYP3A4 [2] = molecular target: T1, CYP3A4; conditions: pH 7.4
Description: as §1

T1 sequence (P08684 with tags, fused parts or gaps): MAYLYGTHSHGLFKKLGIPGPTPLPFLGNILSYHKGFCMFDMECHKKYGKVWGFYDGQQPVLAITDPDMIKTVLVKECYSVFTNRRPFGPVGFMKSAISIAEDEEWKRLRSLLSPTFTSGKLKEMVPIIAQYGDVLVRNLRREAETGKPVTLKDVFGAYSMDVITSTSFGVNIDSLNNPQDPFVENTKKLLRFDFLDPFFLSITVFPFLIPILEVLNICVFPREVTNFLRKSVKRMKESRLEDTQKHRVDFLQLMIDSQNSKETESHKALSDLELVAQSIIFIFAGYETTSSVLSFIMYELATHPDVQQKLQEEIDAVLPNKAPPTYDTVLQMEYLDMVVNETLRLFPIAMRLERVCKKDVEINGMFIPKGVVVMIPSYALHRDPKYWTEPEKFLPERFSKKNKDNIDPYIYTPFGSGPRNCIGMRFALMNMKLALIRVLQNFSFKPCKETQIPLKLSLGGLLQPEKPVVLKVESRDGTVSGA

SMILES | Kd (CYP3A4 [1]; pH 7.4, S50, 15 mM TEG) [µM] | Kd (CYP3A4 [1]; pH 7.4, S50, no TEG) [µM] | nH (Hill coefficient) (CYP3A4 [2]) | decrease of binding affinity for WT CYP3A4 in the presence of TEG (CYP3A4 [1]; 15 mM TEG vs no TEG) [%]
CC(=O)[C@H]1CC[C@H]2[C@@H]3CCC4=CC(=O)CC[C@]4(C)[C@H]3CC[C@]12C [Progesterone] | 16 ± 2 | 17 ± 1 | 1.6 ± 0.1 | –
Cc1ncc2n1-c1ccc(Cl)cc1C(c1ccccc1F)=NC2 [Midazolam] | – | – | – | 30
